Test results as given in patent publication US20140051662A1 (priority 2011, published 2014).
Read-outs that look alike come from different tables or passages of the source.

Legend:
[1] = system: FGFR3 expressing Ba/F3 cells; assay: proliferation of FGFR3 expressing Ba/F3 cells; type: cell-based, mouse; conditions: FIG. 1A, dose-dependent
Procedure: [6-^3H] thymidine (Amersham Biosciences, UK) was added (1 μCi/well) for 16 hours. Thymidine incorporation was measured by liquid scintillation counting (Wallace, PerkinElmer). All experiments were performed in triplicate.

[2] = system: intracellular domain of FGFR3; assay: tyrosine phosphorylation in Ba/F3 cells (Western), FGFR3; type: cell-based, human; conditions: masitinib 1 μM, 10 ng/ml FGF
intrinsic PDGF receptor = assay: tyrosine phosphorylation in Ba/F3 cells (Western), PDGF receptor positive control; type: cell-based; conditions: FIG. 1B
[3] = system: LP1 cells (t(4;14) positive); assay: thymidine proliferation assay, LP1; type: cell-based, human
Procedure: (§1) Multiple myeloma cell lines RPMI 8226, U266 (t(4;14) negative) and OPM2, LP1, NCI-H929 (t(4;14) positive) were cultured in RPMI medium (Gibco-BRL) supplemented with 10% fetal calf serum (FCS, Life Technologies), 100 units/ml penicillin, 100 μg/ml streptomycin, except LP1 which were cultured in DMEM (Gibco-BRL). Bone marrow plasma cells were CD138-selected using MACS systems (Miltenyi Biotec, Germany). […] [6-^3H] thymidine (Amersham Biosciences, UK) was added (1 μCi/well) for 16 hours. Thymidine incorporation was measured by liquid scintillation counting (Wallace, PerkinElmer). All experiments were performed in triplicate.

[4] = system: NCI-H929 cells (t(4;14) positive); assay: thymidine proliferation assay, NCI-H929; type: cell-based; conditions: Homo sapiens
Procedure: as §1

[5] = system: RPMI 8226 cells (t(4;14) negative); assay: thymidine proliferation assay, RPMI 8226; type: cell-based, human
Procedure: as §1

[6] = system: U266 cells (t(4;14) negative); assay: thymidine proliferation assay, U266; type: cell-based, human
Procedure: as §1

[7] = system: OPM2 cells (t(4;14) positive); assay: thymidine proliferation assay, OPM2; type: cell-based, human
Procedure: as §1

[8] = system: fresh plasma cells from patients with t(4;14) multiple myeloma expressing FGFR3; assay: proliferation of fresh plasma cells from patients; type: cell-based, human
Procedure: Bone marrow plasma cells were CD138-selected using MACS systems (Miltenyi Biotec, Germany). […] [6-^3H] thymidine (Amersham Biosciences, UK) was added (1 μCi/well) for 16 hours. Thymidine incorporation was measured by liquid scintillation counting (Wallace, PerkinElmer). All experiments were performed in triplicate.

[9] = system: patients with relapsing or refractory multiple myeloma; assay: open-label phase 2 study, masitinib plus bortezomib/dexamethasone (VD); type: in vivo, human
Description: Initially, this study was to investigate the safety and efficacy of masitinib administered in combination with the chemotherapy regimens of masitinib plus (dexamethasone/bortezomib/thalidomide); or masitinib plus (dexamethasone/bortezomib/adriamycin). However, after early preliminary results both these latter arms were eliminated from the study due to a tendency of higher incidence of adverse events or because these were not considered a gold standard treatment in this pathology. […] Velcade: 1.3 mg/m^2 intravenously; Level 1: Days 1 and 4; Level 2: Days 1, 4, 8 and 11 Dexamethasone: 40 mg/day, orally; Level 1: Days 1 to 4; Level 2: Days 1 to 4, 8 and 11 Adriamycin: 9 mg/m2 intravenously (bolus or perfusion); Days 1 to 4 Thalidomide: 200 mg/day, orally, once daily in the evening […] The two dosing regimens of the bortezomib plus dexamethasone combination (VD) were successively tested. After the observation that a low level of VD was well tolerated in four patients, the following patients were treated at a higher level. Included were patients with refractory or relapsing multiple myeloma: • With t(4; 14) translocation regardless of FGFR3 status, i.e. expressing FGFR3 or not; • or without a t(4; 14) translocation and relapsing within 1 year after the first line therapy including or not bone marrow transplantation. All patients were to receive combination therapy for the planned number of cycles or until disease progression, after which they could continue with masitinib plus dexamethasone in an extension phase.

Lyn = Lyn (Homo sapiens, UniProt P07948); assay: inhibition of Lyn kinase
Lyn, sequence (P07948 whole entry, species assumed): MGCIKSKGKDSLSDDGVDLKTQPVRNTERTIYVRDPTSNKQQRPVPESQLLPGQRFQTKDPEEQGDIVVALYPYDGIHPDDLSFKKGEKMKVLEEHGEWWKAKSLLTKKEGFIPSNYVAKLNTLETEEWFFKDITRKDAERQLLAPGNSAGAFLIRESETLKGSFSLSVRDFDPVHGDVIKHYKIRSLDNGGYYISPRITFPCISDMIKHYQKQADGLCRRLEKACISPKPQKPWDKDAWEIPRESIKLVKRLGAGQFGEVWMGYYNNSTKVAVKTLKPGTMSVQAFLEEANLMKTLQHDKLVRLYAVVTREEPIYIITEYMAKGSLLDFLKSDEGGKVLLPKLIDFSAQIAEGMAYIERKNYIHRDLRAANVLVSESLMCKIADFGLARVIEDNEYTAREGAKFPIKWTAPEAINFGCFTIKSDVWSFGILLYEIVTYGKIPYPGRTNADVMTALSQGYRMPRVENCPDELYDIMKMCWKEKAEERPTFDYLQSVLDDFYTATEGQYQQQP

[10] = system: patients with relapsed or refractory t(4;14) multiple myeloma
[11] = system: human cord blood mast cells; conditions: cited from earlier work
[12] = 13 patients receiving VD as second line therapy (first relapse)
[13] = cohort VD Level 2, two patients
[14] = masitinib plus VD, all 17 patients
[15] = beyond first relapse, aggressive relapse
[16] = beyond first relapse, non-aggressive relapse
[17] = masitinib plus dexamethasone combination therapy
[18] = more than two previous lines (beyond first relapse)
[19] = second line of treatment (first relapse)

Cc1ccc(NC(=O)c2ccc(CN3CCN(C)CC3)cc2)cc1Nc1nc(-c2cccnc2)cs1 [masitinib, 4-(4-methylpiperazin-1-ylmethyl)-N-[4-methyl-3-(4-pyridin-3ylthiazol-2-ylamino)phenyl]benzamide]
growth of BaF3 cell expressing the intracellular kinase domain of FGFR3 [1]: inhibited
phosphorylation of the intracellular domain of FGFR3 [2]: inhibited
phosphorylation of the PDGF receptor (intrinsic PDGF receptor): Inhibition
inhibition at 2 µM ([3]; Homo sapiens, LP-1): 50%
anti-proliferative interaction with dexamethasone ([3]; combination with dexamethasone, FGF-activated LP1): synergy
reduction of proliferation compared to dexamethasone alone ([3]; masitinib added to dexamethasone, 5 times less dexamethasone, FGF-activated LP1): 2 fold
inhibition at 2 µM [4]: 50%
effect on proliferation [5]: no effect
proliferation ([6]; U266, t(4;14) negative): significantly and dose-dependently decreased
anti-proliferative interaction with dexamethasone ([6]; combination with dexamethasone, U266): synergy
reduction of proliferation compared to dexamethasone alone ([6]; masitinib added to dexamethasone, 5 times less dexamethasone, U266): 7 fold
anti-proliferative interaction with dexamethasone ([7]; combination with dexamethasone): synergy
reduction of proliferation compared to dexamethasone alone ([7]; masitinib added to dexamethasone, 5 times less dexamethasone): 2 fold
proliferation [8]: inhibited
Median PFS ([9]; 4 patients treated at level 1): 2.9 months
Median OS [9, 12]: 22.3 months
Median PFS [9, 12]: 9.3 months
Median PFS ([9]; 13 patients treated at level 2): 7.4 months
Median overall survival (OS) ([9]; 13 patients treated at level 2): 20.0 months
patients with best response of partial response ([9]; VD as second line therapy, eleven of 12): 92%
Median overall survival (OS) ([9]; all patients): 18.1 months
grade 4 adverse event suspected to be treatment-related ([9]; cohort VD Level 1): No grade 4 adverse event
patients with at least one AE suspected to be treatment-related ([9]; cohort VD Level 1, 4 patients): All patients
patients with at least one AE suspected to be treatment-related ([9]; cohort VD Level 2, 8 of 13 patients): 62%
patients with a grade 3 AE suspected to be treatment-related [9, 13]: 15%
patients with at least one grade 4 AE suspected to be treatment-related [9, 13]: 15%
patients still alive at the cut-off date ([9]; five of 17 VD patients, 31 Mar. 2010): 29%
patients with a very good partial response ([9]; intent-to-treat population): five
response rate (complete response or partial response) ([9]; intent-to-treat population): 75%
patients with at least one AE suspected to be treatment-related [9, 14]: 71%
patients with at least one grade 4 AE suspected to be treatment-related [9, 14]: 12%
median progression free survival (PFS) ([9]; overall VD population): 7.4 months
response rate (complete response or partial response) ([9]; per-protocol population): 86%
Median OS ([9]; t(4;14) negative patients): 25.3 months
Median PFS ([9]; t(4;14) negative patients): 9.3 months
patients with best response of partial response ([9]; t(4;14) negative patients, three of five): 60%
Median OS ([9]; t(4;14) positive patients): 17.1 months
Median PFS ([9]; t(4;14) positive patients): 5.9 months
patients with best response of partial response ([9]; t(4;14) positive patients, 8 out of 10): 80%
concentrations at which the kinase is inhibited (Lyn): submicromolar
patients with rashes ([10]; 2 patients): 8.3%
patients with suspected diarrhea ([10]; 10 patients): 41.7%
patients with drug-related edema ([10]; 13 patients): 54.2%
patients with nausea and/or vomiting ([10]; 16 patients, suspected AE): 66.7%
patients with suspected masitinib-related (or not assessable) adverse events ([10]; 21 of 24 patients): 87.5%
suspected masitinib-related (or not assessable) adverse events, total number ([10]; 24 patients): 145
median overall survival ([10]; all 24 patients): 19.8 months
median progression free survival (PFS) ([10]; all 24 patients): 3.9 months
survival ([10]; all patients with unsatisfactory response to previous treatment or in first relapse): at least 1 year
median overall survival [10, 15]: 8.1 months
median progression free survival (PFS) [10, 15]: 2.1 months
median overall survival [10, 16]: 25.4 months
median progression free survival (PFS) [10, 16]: 3.9 months
patients who discontinued because of AEs suspected to be masitinib-related ([10]; five patients): 20.8%
patients with severe edema ([10]; in vivo): two
patients with severe nausea ([10]; in vivo): Three
patients with Minor Response [10, 17]: 5 patients
patients with very good partial response (IMWG criteria) [10, 17]: one
response in patients with aggressive relapse [10, 17]: No response
median overall survival [10, 18]: 8.6 months
median progression free survival (PFS) [10, 18]: 3.0 months
patients still alive after 2 years ([10]; overall): 43.5%
median overall survival [10, 19]: 35.7 months
median progression free survival (PFS) [10, 19]: 9.1 months
patients with at least one suspected masitinib-related (or not assessable) serious adverse event ([10]; seven patients): 29.2%
patients with severe suspected adverse events (non-hematological grade 3/4) ([10]; seven patients): 29.2%
patients with acute renal failure ([10]; severe): two
FcεRI-mediated degranulation [11]: inhibition
